Assay results as given in US8202835B2, “Disease treatment via antimicrobial peptides or their inhibitors” (priority 2005, dated 2012).
“Also recorded” adds a separate entry of the source. No end group written: not given here.

Columns and labels:
BALB/C mice = test: DSS induced acute colitis model of IBD, disease activity index (DAI); type: in vivo, mouse; conditions: DSS treated control group average DAI 3; score 0 to 4
Description: BALB/C mice were induced with acute colitis by feeding dextran sulfate sodium (DSS) in drinking water for one week and synthetic cathelicidin was administered intrarectally daily during colitis induction.
Mice were induced with acute colitis by being given 3% DSS (molecular weight, 36-50 kDa) according to the method described by Liu et al. (Carcinogenesis 24:1407-1413, 2003). The 3% DSS was given in their drinking water liar 7 days (from Day 0 to Day 7). Normal control mice received tap water throughout the experiment.
Intrarectal administration of AMPs Cathelicidin mCRAMP (5 mg/Kg/day), beta-Defensin 1 (1 mg/Kg/day), beta-Defensin 3 (1 mg/Kg/day), Elafin and SLPI, CCL20 (1 mg/Kg/day), lysozyme (3 mg/Kg/day)), as well as bactericidal/permeability increasing protein (1 mg/Kg/day). The mice were divided into two groups of 10, one receiving ordinary tap water and the disease group with DSS treatment. The peptides were intrarectally administrated once daily for 10 consecutive days beginning 3 dayd before DSS treatment. The PBS control mice received equal volumes of PBS (i.e., 100 ul) intrarectally.
In all tested animals, body weight, stool consistency, and presence of gross bleeding were recorded. Disease activity index (DAI) was calculated according to the method described by Cooper et al. (Lab Invest 69:238-249, 1993.). In brief, body weight loss, stool consistency, and bleeding were scored from 0 to 4, and DAI is the combined score divided by 3.
In addition, a parallel experiment using mCRAMP (0.8 mg/Kg) administered by injection into the peritoneum 3 times a week beginning at one week before DSS treatment. In this experiment, two groups of mice (10 in each) were compared were the control group received saline during DSS treatment while the treatment group received mCRAMP (0.8 mg/Kg) intraperitonculy 3 times a week.
AMPs were applied both individually or together in combination.

BETATC beta cell line = test: Thymidine incorporation cell proliferation assay; type: cell-based, mouse; conditions: LL-37 2 microgram/ml, 3.5 days, vs PBS control
Description: Murine beta cell line were treated for 3.5 days with LL-37 at 2 microgram/ml (red/dark bars) and compared to PBS control ([…]). Cell proliferation was estimated by measuring [3(H)]-thymidine incorporation and was expressed as percent of control untreated cells. A representative experiment is shown.
Antimicrobial peptides (AMPs): The antimicrobial peptides human cathelicidin LL-37: […] (SEQ ID NO: 14) was obtained from AnaSpec, USA (Catalogue numbers: 61302). Cathelicidin at 2 ug/ml was added to the plate and compared with control.
Thymidine incorporation cell proliferation assay: Cell proliferation was evaluated by measuring [3(H)]-thymidine incorporation into DNA. Cells were pulsed with [3(H)]-thymidine (1 microcurie/mL, ICN, Irvine, Calif.) for 1 hour, at 37 degrees centigrade. After incubation, cells were washed 3 times with PBS, incubated for 15 minutes at room temperature in 5% trichloroacetic acid and solubilized in 1% triton X-100. The radioactivity incorporated into the cells was counted in the [3(H)]-window of a Tricarb liquid scintillation counter. Mean values were determined from measurements of triplicate samples under each experimental condition for each experiment. Thymidine incorporation was determined as number of disintegrations per minute (DPM) per mg of protein.

[1] = Infection and immunity, November 1999, p. 6084-6089; cited from earlier work
human psoriatic skin = test: Human in-vivo psoriatic lesion treatment; conditions: blind trial; for skin psoriatic lesion, 5 days treatment: Cathelicidin 10 ug/ml applied to lesions in a human subject
Description: Human in-vivo psoriatic lesion treatment: Cathelicidin 10 ug/ml or human beta defensin-2 diluted in PBS containing 0.1% BSA, or buffer carrier was applied to lesions in a human subject in a blind trial.

Molecule	average DAI (disease activity index) (BALB/C mice)	skin psoriatic lesion, 5 days treatment (human psoriatic skin)	further results
Alpha-Defensin 6: antimicrobial peptide reported in the DSS colitis model (AFTCHCRRSCYSTEYSYGTCTVMGINHRFCCL; ends and bridges not checked; cysteine pairing not given here; UniProt Q01524 69-100, looked up)	1.8	–	–
LLGDFFRKSKEKIGKEFKRIVQRIKDFLRNLVPRTES [LL-37]	–	slight improvement	cell proliferation ([3(H)]-thymidine incorporation) (BETATC beta cell line): significant BETATC beta cell line proliferation; also recorded: slight increase in cell proliferation; half-life in blood of humans [1]: approximately 3.4 days
SKEKIGKEFKRIVQRIKDFLRNLVPRTES (listed as Homo sapiens) [SK29, fragment cathelicidin SK29]	–	slight improvement	–
beta-Defensin 3: antimicrobial peptide tested in the DSS colitis model (GIINTLQKYYCRVRGGRCAVLSCLPKEEQIGKCSTRGRKCCRRKK; ends and bridges not checked; cysteine pairing not given here; UniProt P81534 23-67, looked up)	1.8	–	–
human beta defensin-2: Human Beta-Defensin-2 peptide purchased from Sigma-Aldrich (GIGDPVTCLKSGAICHPVFCPRRYKQIGTCGLPGTKCCKKP; ends and bridges not checked; cysteine pairing not given here; UniProt O15263 24-64, looked up) [reference compound]	1.8	–	skin psoriatic lesion, seven week course of treatment (human psoriatic skin; applied to lesions in a human subject, FIG. 20): worsening of skin psoriatic legion
Alpha-Defensin 5: antimicrobial peptide reported in the DSS colitis model (peptide, UniProt Q01523 20-94, looked up, Defensin-5, antimicrobial peptide reported in the DSS colitis model) Defensin alpha 5: ESLQERADEATTQKQSGEDNQDLAISFAGNGLSALRTSGSQARATCYCRTGRCATRESLSGVCEISGRLYRLCCR	1.8	–	–
